Data reported in patent publication US20040043959A1, “Combination therapies for treating methylthioadenosine phosphorylase deficient cells” (priority 2002, published 2004).

Target: T1, Human MTAP (Homo sapiens, UniProt Q13126)
T1 construct: six-histidine tag (His6) (N); made in house; host or cells: E. coli BL21 DE3
T1 sequence (Q13126 1-283): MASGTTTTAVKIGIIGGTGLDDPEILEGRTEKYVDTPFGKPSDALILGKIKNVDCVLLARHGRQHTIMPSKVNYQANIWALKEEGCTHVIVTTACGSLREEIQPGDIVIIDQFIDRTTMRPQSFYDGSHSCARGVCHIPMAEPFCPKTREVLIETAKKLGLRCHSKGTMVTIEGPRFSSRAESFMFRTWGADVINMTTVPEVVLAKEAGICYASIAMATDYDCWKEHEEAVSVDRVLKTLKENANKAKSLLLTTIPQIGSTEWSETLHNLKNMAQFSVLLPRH
Test: MTAP substrate assay, coupled spectrophotometric (adenine, xanthine oxidase)
Assay type: biochemical
Details: 2 nM MTAP; for activity at 50 µM: 10 min, compound 50 uM, relative to MTA at 50 uM, read-out: MT-A—50: initial velocity as a percentage of the initial velocity with MTA as substrate; for MT-A—10: initial velocity as a percentage of the initial velocity with MTA as substrate: compound 10 uM, relative to MTA at 10 uM
Description: An enzymatic assay to determine the activity of MTAP against a given substrate was performed. Human MTAP containing an N-terminal six-histidine tag was expressed in E. coli BL21 DE3 cells. The protein was purified to homogeneity by Ni2+ affinity chromatography. Enzymatic activity was measured using a coupled spectrophotometric assay designed to monitor the reaction product adenine (Savarese, T. M., Crabtree, G. W., and Parks, R. E. Jr., (1980) Biochem. Pharmacol. 30, 189-199). Various concentrations of the indicated 5′-deoxymethylthio adenosine (MTA) or substrate were incubated in assay buffer (40 mM potassium phosphate buffer, 1 mM, and DTT 0.8 units/ml xanthine oxidase coupling enzyme) for 5 minutes at 37° C. The reaction was initiated by the addition of MTAP. The exact concentration of enzyme used varied for each substrate tested and ranged from 2 nM to 500 nM. Activity as a function of enzyme concentration was determined for each substrate tested to ensure that the appropriate enzyme concentration was used. Activity was detected by continuous monitoring of absorbance at 305 nm for 10 minutes (ΔE=15,500 M^−1).
Library compounds (10 and 50 uM) were tested using the assay described above with 2 nM MTAP enzyme. The resultant initial velocities are reported as a percentage of the initial velocity observed when MTA is the substrate. MTA controls, 10 and 50 uM concentrations, were run on each plate alongside the library compounds.

| SMILES | activity at 50 µM [%] | MT-A—10: initial velocity as a percentage of the initial velocity with MTA as substrate [%] |
| --- | --- | --- |
| Cc1cccc2[nH]c(SC[C@H]3O[C@@H](n4cnc5c(N)ncnc54)[C@H](O)[C@@H]3O)nc12 [2(G)(46), (2R, 3R, 4S, 5S)-2-(6-amino-9H-purin-9-yl)-5-{[(4-methyl-1H-benzimidazol-2-yl)-thio]methyl}tetrahydro-furan-3,4-diol] | 45 | 42 |
| Nc1ncnc2c1ncn2[C@@H]1O[C@H](CSc2nc3cnccc3[nH]2)[C@@H](O)[C@H]1O [2(G)(47), (2R, 3R, 4S, 5S)-2-(6-amino-9H-purin-9-yl)-5-[(1H-imidazo[4,5-c]-pyridin-2-ylthio)methyl]-tetrahydrofuran-3,4-diol] | 50 | 49 |
| Cc1ccc2[nH]c(SC[C@H]3O[C@@H](n4cnc5c(N)ncnc54)[C@H](O)[C@@H]3O)nc2c1 [2(G)(48), (2R, 3R, 4S, 5S)-2-(6-amino-9H-purin-9-yl)-5-{[(5-methyl-1H-benzimidazol-2-yl)thio]-methyl}tetrahydro-furan-3,4-diol] | 5 | 3 |
| Nc1ncnc2c1ncn2[C@@H]1O[C@H](CSc2nc(O)c3cn[nH]c3n2)[C@@H](O)[C@H]1O [2(G)(49), (2R, 3R, 4S, 5S)-2-(6-amino-9H-purin-9-yl)-5-{[(4-hydroxy-1H-pyrazolo[3,4-d]pyrimidin-6-yl)thio]methyl}tetra-hydrofuran-3,4-diol] | 46 | 52 |
| Nc1ncnc2c1ncn2[C@@H]1O[C@H](CSc2nc3ccccc3c(=O)[nH]2)[C@@H](O)[C@H]1O [2(G)(50), 2-({[(2S, 3S, 4R, 5R)-2-(6-amino-9H-purin-9-yl)-dihydroxytetrahydro-furan-2-yl]methyl}thio)-quinazolin-4-(3H)-one] | 37 | 9 |
| Nc1ccc2[nH]c(SC[C@H]3O[C@@H](n4cnc5c(N)ncnc54)[C@H](O)[C@@H]3O)nc2c1 [2(G)(51), (2R, 3R, 4S, 5S)-2-(6-amino-9H-purin-9-yl)-5-{[(5-amino-1H-benzoimidazol-2-yl)thio]methyl}tetrahydro-furan-3,4-diol] | 36 | 16 |
| Cc1nnc(SC[C@H]2O[C@@H](n3cnc4c(N)ncnc43)[C@H](O)[C@@H]2O)s1 [2(G)(52), (2R, 3R, 4S, 5S)-2-(6-amino-9H-purin-9-yl)-5-{[(5-methyl-1,3,4-thiadiazol-2-yl)thio]methyl}tetrahydro-furan-3,4-diol] | 23 | 19 |
| Nc1ncnc2c1ncn2[C@@H]1O[C@H](CSc2nc[nH]n2)[C@@H](O)[C@H]1O [2(G)(53), (2R, 3R, 4S, 5S)-2-(6-amino-9H-purin-9-yl)-5-[(1H-1,2,4-triazol-3-ylthio)methyl]tetrahydro-furan-3,4-diol] | 57 | 58 |
| COC(=O)CSC[C@H]1O[C@@H](n2cnc3c(N)ncnc32)[C@H](O)[C@@H]1O [2(G)(54), methyl ({[(2S, 3S, 4R, 5R)-5-(6-amino-9H-purin-9-yl)-3,4-dihydroxy-tetrahydrofuran-2-yl]methyl}thio)acetate] | 44 | 36 |
| Nc1ncnc(SC[C@H]2O[C@@H](n3cnc4c(N)ncnc43)[C@H](O)[C@@H]2O)n1 [2(G)(55), (2R, 3R, 4S, 5S)-2-(6-amino-9H-purin-9-yl)-5-{[(4-amino-1,3,5-triazin-2-yl)thio]methyl}tetra-hydrofuran-3,4-diol] | 47 | 43 |
| CNC(=O)CSC[C@H]1O[C@@H](n2cnc3c(N)ncnc32)[C@H](O)[C@@H]1O [2(G)(56), 2-({[(2S, 3S, 4R, 5R)-5-(6-amino-9H-purin-9-yl)-dihydroxytetrahydrofuran-2-yl]methyl}thio)-N-methylacetamide] | 10 | 6 |
| Nc1ncnc2c1ncn2[C@@H]1O[C@H](CSCCCCO)[C@@H](O)[C@H]1O [2(G)(57)] | 45 | 31 |
| Nc1ncnc2c1ncn2[C@@H]1O[C@H](CSCCc2ccncc2)[C@@H](O)[C@H]1O [2(G)(58), (2R, 3R, 4S, 5S)-2-(6-amino-9H-purin-9-yl)-5-{[(2-pyridin-4-ylethyl)thio]methyl}tetra-hydrofuran-3,4-diol] | 47 | 38 |
| Nc1cccnc1SC[C@H]1O[C@@H](n2cnc3c(N)ncnc32)[C@H](O)[C@@H]1O [2(G)(59), (2R, 3R, 4S, 5S)-2-(6-amino-9H-purin-9-yl)-5-{[(3-aminopyridin-2-yl)thio]methyl}tetra-hydrofuran-3,4-diol] | 47 | 18 |
| NC(=O)c1cccnc1SC[C@H]1O[C@@H](n2cnc3c(N)ncnc32)[C@H](O)[C@@H]1O [2(G)(60), 2-({[(2S, 3S, 4R, 5R)-5-(6-amino-9H-purin-9-yl)-3,4-dihydroxytetrahydro-furan-2-yl]methyl}thio)-nicotinamide] | 8 | 4 |
| Nc1ncnc2c1ncn2[C@@H]1O[C@H](CSCCc2cnccn2)[C@@H](O)[C@H]1O [2(G)(61)] | 20 | 15 |
| CC1OCCC1SC[C@H]1O[C@@H](n2cnc3c(N)ncnc32)[C@H](O)[C@@H]1O (stereo partly drawn) [2(G)(62), (2R, 3R, 4S, 5S)-2-(6-amino-9H-purin-9-yl)-5-{[(2-methyltetra-hydrofuran-3-yl)thio]methyl}tetrahydrofuran-3,4-diol] | 7 | 6 |
| Cn1c(CO)cnc1SC[C@H]1O[C@@H](n2cnc3c(N)ncnc32)[C@H](O)[C@@H]1O [2(G)(63), (2R, 3R, 4S, 5S)-2-(6-amino-9H-purin-9-yl)-5-({[5-(hydroxymethyl)-1-methyl-1H-imidazol-2-yl]thio}methyl)tetra-hydrofuran-3,4-diol] | 5 | 5 |
| Nc1ncnc2c1ncn2[C@@H]1O[C@H](CSc2nc(O)c3cc[nH]c3n2)[C@@H](O)[C@H]1O [2(G)(64), (2R, 3R, 4S, 5S)-2-(6-amino-9H-purin-9-yl)-5-{[(4-hydroxy-7H-pyrrolo[2,3-d]pyrimidin-2-yl)thio]methyl}tetra-hydrofuran-3,4-diol] | 48 | 48 |
| CC(C)n1c(O)nnc1SC[C@H]1O[C@@H](n2cnc3c(N)ncnc32)[C@H](O)[C@@H]1O [2(G)(65), (2R, 3R, 4S, 5S)-2-(6-amino-9H-purin-9-yl)-5-{[(5-hydroxy-4-isopropyl-4H-1,2,4-triazol-3-yl)thio]methyl}tetrahydrofuran-3,4-diol] | 4 | 5 |
| CN(C)Cc1nnc(SC[C@H]2O[C@@H](n3cnc4c(N)ncnc43)[C@H](O)[C@@H]2O)n1C [2(G)(66), (2R, 3R, 4S, 5S)-2-(6-amino-9H-purin-9-yl)-5-[({5-[(dimethylamino)-methyl]-4-methyl-4H-1,2,4-triazol-3-yl}thio)methyl]tetrahydro-furan-3,4-diol] | 6 | 6 |
| Cc1nnc(SC[C@H]2O[C@@H](n3cnc4c(N)ncnc43)[C@H](O)[C@@H]2O)n1C [2(G)(67), (2R, 3R, 4S, 5S)-2-(6-amino-9H-purin-9-yl)-5-{[(4,5-dimethyl-4H-1,2,4-triazol-3-yl)thio]methyl}tetra-hydrofuran-3,4-diol] | 47 | 45 |
| CCC(C)SC[C@H]1O[C@@H](n2cnc3c(N)ncnc32)[C@H](O)[C@@H]1O (stereo partly drawn) [2(G)(68), (2R, 3R, 4S, 5S)-2-(6-amino-9H-purin-9-yl)-5-[(sec-butylthio)methyl]tetra-hydrofuran-3,4-diol] | 45 | 42 |
| Nc1ncnc2c1ncn2[C@@H]1O[C@H](CSc2cnccn2)[C@@H](O)[C@H]1O [2(G)(69), (2R, 3R, 4S, 5S)-2-(6-amino-9H-purin-9-yl)-5-[(pyrazin-2-ylthio)methyl]tetrahydro-furan-3,4-diol] | 40 | 31 |
